Results taken from patent US20230129866A1 (PureTech LYT 100, Inc., priority 2020, published 2023).

Experiments:
[1] = 91-day repeat dose oral toxicity and toxicokinetics study in rats; settings: for Ratio of exposure (AUC), Group 4 (LYT-100 at 750 mg/kg) analyte / Group 5 (SD-559 at 750 mg/kg) analyte: LYT-100/SD-559, SD-790/SD-788, SD-1051/SD-1050, SD-789 Group 4/SD-789 Group 5; for Dose proportionality of AUC0-24 over 250 to 750 mg/kg / Dose proportionality of Cmax over 250 to 750 mg/kg: rats dosed with SD-560, Groups 2 to 4, general statement
Experimental: The original male TK animals received 1000 mg/kg of SD-559 on Day 1 and continued on study. The protocol was amended to add additional TK male animals in Group 6 for Day 1 collection of TK samples at 875 mg/kg.
Blood samples were collected from 3 subsets of 3 animals/sex on Day 1 and Day 28 at pre-dose, 0.25, 0.5, 1, 2, 4. 8 and 24 hours (hr) post-dose for groups 2 to 6 and from one subset of 3 animals/sex at 0.25 hr post-dose for the vehicle group (group 1). […] Non-compartmental analysis (NCA) of plasma concentration data was conducted using Phoenix® WinNonlin®, version 8.0.

[2] = Phase 1 multiple ascending dose (MAD) study Part 1, healthy volunteers (PK and safety); settings: for Accumulation ratios (AUC96-108/AUC0-12) across all dose groups: 100 mg, 250 mg, 500 mg, and 750 mg BID, Cohorts 1-4, FIG. 19; for Average ratio to the parent (M/P) by AUC: range in brackets
Experimental: Up to 5 dosing cohorts are planned in Part 1.
Additional cohorts and intermediate doses may be selected in lieu of predefined doses as noted and in accordance with safety and tolerability responses, but doses will not exceed 1000 mg BID or a total daily dose of 2000 mg.
A standardised lunch will be served ≥4 h post breakfast and ≥4 h prior to dinner. An evening snack will be served ≥3 h following evening study medication administration. No additional fluids will be allowed during the 1 h pre- and post-doses. On Day 6, subjects will replicate mealtimes as scheduled on Day 1-5.
Plasma PK parameters (non-compartmental or compartmental analysis as appropriate) will include, but are not limited to: • Following single dose: Tmax, tlag, Cmax, AUC0-4, AUC0-last, t1/2, AUC0-inf, lambda z, %AUCext, CL/F, Vz/F, Cmax/D, AUC0-last/D, AUC0-inf/D and MRT (D is dose) • After repeated doses: Ctrough, Ctrough/D • Following repeated doses on last day: Tmax, Cmax, Cavg, tlag, t1/2, AUC0-4, AUC0-last; AUC0-inf, lambda z, %AUCext, CLss/F, Vzss/F, MRT, PTF, Rac(AUC), Rac(Cmax), Cmax/D, AUClast/D, AUC0-inf/D and Rae (accumulation ratio).

[3] = Single 801 mg dose, double-blinded, cross-over study of LYT-100 vs pirfenidone in healthy volunteers (PK and safety)
[4] = Treatment = LYT-100, single 801 mg oral dose, fed, n = 24
[5] = Treatment = LYT-100, single 801 mg oral dose, fed, n = 24 (LYT-110 n = 23)
[6] = after LYT-100 801 mg, metabolite/LYT-100
[7] = after LYT-100 801 mg, metabolite/LYT-100, molecular weight corrected

For `[2H]C([2H])(O)c1ccc(=O)n(-c2ccccc2)c1` [SD-790, d2-5-hydroxymethyl-pirfenidone], the “Ratio of exposure (AUC), Group 4 (LYT-100 at 750 mg/kg) analyte / Group 5 (SD-559 at 750 mg/kg) analyte” value ([1]; Day 1, Female rats) was 2.50, the “Ratio of exposure (AUC), Group 4 (LYT-100 at 750 mg/kg) analyte / Group 5 (SD-559 at 750 mg/kg) analyte” value ([1]; Day 1, Male rats) was 2.22 and the “Ratio of exposure (AUC), Group 4 (LYT-100 at 750 mg/kg) analyte / Group 5 (SD-559 at 750 mg/kg) analyte” value ([1]; Day 28, Female rats) was 2.59. For the same compound, the “Ratio of exposure (AUC), Group 4 (LYT-100 at 750 mg/kg) analyte / Group 5 (SD-559 at 750 mg/kg) analyte” value ([1]; Day 28, Male rats) was 2.54, the “Cmax in rat relative to human” value ([1]; male rat Day 1 vs human) was about 1825 fold and the “Exposure in rats relative to humans after 28 days of daily dosing” value ([1]; male rat Day 28 vs human) was about 1600 fold. For the same compound, the “Exposure (AUC) in rat relative to human” value ([1]; male rats 750 mg/kg Day 1 vs human single 801 mg dose) was “about 1250 fold”, the “Dose proportionality of AUC0-24 over 250 to 750 mg/kg” value [1] was “dose proportional” and the “Dose proportionality of Cmax over 250 to 750 mg/kg” value [1] was “dose proportional”. For the same compound, the “Exposure and Cmax vs the non-deuterated corresponding metabolite (SD-788) from SD-559” value ([1]; rats, 750 mg/kg each, all days, both genders) was “almost twice”, the “Accumulation ratios (AUC96-108/AUC0-12) across all dose groups” value [2] was about 1 and the “Average ratio to the parent (M/P) by AUC” value ([2]; Cohort 4, 750 mg BID) was 0.0025 (0.0020-0.0029). For the same compound, the “Average ratio to the parent (M/P) by AUC” value ([2]; Cohort 6, 1000 mg BID) was 0.0028 (0.0018-0.0038), the “Cmax (ng/mL), Mean” value ([3]; Treatment = LYT-100, single 801 mg oral dose, fed, healthy volunteers, n = 24) was 20.6 ng/mL and the “AUC0-t (hr*ng/mL), Mean” value [3, 4] was 111 ng·h/mL. The “tmax (hr), Median” value [3, 4] was 2.50 h, the “% AUC extrap, Mean” value [3, 5] was 10.1% and the “AUC(inf) (hr*ng/mL), Mean” value [3, 5] was 124 ng·h/mL. The “Kel (1/hr), Mean” value [3, 5] was 0.294 h⁻¹, the “t1/2 (hr), Mean” value [3, 5] was 2.76 h and the “Metabolite/Parent Ratio, AUC0-∞, Median” value [3, 6] was 0.2%. For the same compound, the “Metabolite/Parent Ratio, Cmax, Median” value [3, 6] was 0.2%, the “Metabolite/Parent Ratio, AUC0-∞, Mean” value [3, 7] was 0.2% and the “Metabolite/Parent Ratio, Cmax, Mean” value [3, 7] was 0.2%.

In the case of `Cc1ccc(=O)n(-c2ccc(O)cc2)c1` [SD-1050, 4′-hydroxy-pirfenidone], the “Metabolite/Parent Ratio, Cmax, Median” value ([3]; after Pirfenidone (LYT-101) 801 mg, metabolite/LYT-101) is reported as 0.0% and the “Metabolite/Parent Ratio, Cmax, Mean” value ([3]; after Pirfenidone (LYT-101) 801 mg, metabolite/LYT-101, molecular weight corrected) is reported as 0.0%.

With `[2H]C([2H])([2H])c1ccc(=O)n(-c2ccc(O)cc2)c1` [SD-1051, d3-4′-hydroxy-pirfenidone] the “Ratio of exposure (AUC), Group 4 (LYT-100 at 750 mg/kg) analyte / Group 5 (SD-559 at 750 mg/kg) analyte” value ([1]; Day 1, Female rats) was 21.77, the “Ratio of exposure (AUC), Group 4 (LYT-100 at 750 mg/kg) analyte / Group 5 (SD-559 at 750 mg/kg) analyte” value ([1]; Day 1, Male rats) was 34.51 and the “Ratio of exposure (AUC), Group 4 (LYT-100 at 750 mg/kg) analyte / Group 5 (SD-559 at 750 mg/kg) analyte” value ([1]; Day 28, Female rats) was 38.04. For the same compound, the “Dose proportionality of AUC0-24 over 250 to 750 mg/kg” value [1] was “increased dose proportionally on Day 1”, the “Dose proportionality of Cmax over 250 to 750 mg/kg” value [1] was “less than dose proportional” and the “Accumulation ratios (AUC96-108/AUC0-12) across all dose groups” value [2] was about 1. The “Average ratio to the parent (M/P) by AUC” value ([2]; Cohort 4, 750 mg BID) was 0.0017 (0.0012-0.0022), the “Average ratio to the parent (M/P) by AUC” value ([2]; Cohort 6, 1000 mg BID) was 0.0037 (0.0030-0.0058) and the “Quantifiability in human plasma” value ([3]; after LYT-100) was “not quantifiable”. For the same compound, the “Metabolite/Parent Ratio, AUC0-∞, Median” value [3, 6] was 0.1%, the “Metabolite/Parent Ratio, Cmax, Median” value [3, 6] was 0.1% and the “Metabolite/Parent Ratio, AUC0-∞, Mean” value [3, 7] was 0.1%. For the same compound, the “Metabolite/Parent Ratio, Cmax, Mean” value [3, 7] was 0.1%.
